In brackets after ≈: the same amount, converted by molar mass. Activity calls are given as the source filed them. The calls are words filed in the database; no cut-off is given here.
Columns and labels:
[1] = system: Staphylococcus aureus; assay: Ratio of MIC for antibacterial activity against Staphylococcus aureus in presence of PG to MIC for antibacterial activity against Staphylococcus aureus; assay type: functional
[2] = system: Enterococcus faecalis; assay: Potency index, ratio of daptomycin MIC to test compound MIC for antibacterial activity against Enterococcus faecalis ATCC 29212; assay type: functional
[3] = Observed volume of distribution at steady state in CD-1 mouse at 1 mg/kg, iv measured up to 24 hrs by UPLC-MS analysis; assay type: ADME, organism-based; details: in vivo, read-out: Vdss
[4] = system: HEK293; assay: Cytotoxicity against HEK293 cells assessed as reduction in cell viability at 80 ug/ml after 72 hrs by CCK-8 assay relative to control; assay type: toxicity, cell-based; details: human, hek293, 72 h, at 80 µg/mL
[5] = Half life in PBS at pH 7.2 to 7.4 at 37 degC for 24 hrs; assay type: ADME
[6] = system: Enterococcus faecalis; assay: Antibacterial activity against Enterococcus faecalis ATCC 29212 assessed as reduction in microbial growth incubated for 24 hrs by broth microdilution method; assay type: functional
[7] = system: Staphylococcus aureus; assay: Antibacterial activity against Staphylococcus aureus assessed as reduction in bacterial growth incubated for 16 to 24 hrs in presence of MHB medium by serial dilution method; assay type: functional; details: time 16-24 hrs
[8] = system: Staphylococcus aureus; assay: Antibacterial activity against methicillin-resistant Staphylococcus aureus USA300 assessed as reduction in microbial growth incubated for 24 hrs by broth microdilution method; assay type: functional
[9] = system: Enterococcus faecium; assay: Antibacterial activity against Enterococcus faecium EFM 20-1 assessed as reduction in microbial growth incubated for 24 hrs by broth microdilution method; assay type: functional
[10] = system: Staphylococcus aureus; assay: Antibacterial activity against methicillin-susceptible Staphylococcus aureus Newman ATCC 25904 assessed as reduction in microbial growth incubated for 24 hrs by broth microdilution method; assay type: functional
[11] = system: Staphylococcus aureus; assay: Antibacterial activity against methicillin-resistant Staphylococcus aureus clinical isolate 20-3 assessed as reduction in microbial growth incubated for 24 hrs by broth microdilution method; assay type: functional
[12] = Solubility of compound in deionized water at >10 mg/ml at room temperature; assay type: physicochemical; details: buffer
[13] = system: Staphylococcus aureus; assay: Potency index, ratio of daptomycin MIC to test compound MIC for antibacterial activity against methicillin-susceptible Staphylococcus aureus Newman ATCC 25904; assay type: functional
[14] = system: Enterococcus faecalis; assay: Antibacterial activity against Enterococcus faecalis EFA 20-1 assessed as reduction in microbial growth incubated for 24 hrs by broth microdilution method; assay type: functional
[15] = system: Enterococcus faecalis; assay: Potency index, ratio of daptomycin MIC to test compound MIC for antibacterial activity against Enterococcus faecalis EFA 20-1; assay type: functional
[16] = system: Staphylococcus aureus; assay: Antibacterial activity against Staphylococcus aureus assessed as reduction in bacterial growth incubated for 16 to 24 hrs in presence of PG by serial dilution method; assay type: functional; details: time 16-24 hrs
[17] = system: Staphylococcus aureus; assay: Antibacterial activity against vancomycin-intermediate resistant Staphylococcus aureus ATCC 700699 assessed as reduction in microbial growth incubated for 24 hrs by broth microdilution method; assay type: functional
[18] = system: Staphylococcus aureus; assay: Antibacterial activity against Staphylococcus aureus infected in zebra fish model assessed as survival rate at 10 mg/kg, ip after 24 hrs by relative to control; assay type: functional
[19] = system: Staphylococcus aureus; assay: Antibacterial activity against Staphylococcus aureus infected in zebra fish model assessed as survival rate at 10 mg/kg, ip after 8 hrs by relative to control; assay type: functional
[20] = system: Enterococcus faecalis; assay: Antibacterial activity against vancomycin-resistant Enterococcus faecalis VREfa 20-1 assessed as reduction in microbial growth incubated for 24 hrs by broth microdilution method; assay type: functional
[21] = system: Staphylococcus aureus; assay: Antibacterial activity against methicillin-susceptible Staphylococcus aureus clinical isolate 20-1 assessed as reduction in microbial growth incubated for 24 hrs by broth microdilution method; assay type: functional
[22] = system: Enterococcus faecium; assay: Potency index, ratio of daptomycin MIC to test compound MIC for antibacterial activity against glycopeptide-resistant Enterococcus faecium Efm-HS-0649; assay type: functional
[23] = system: Staphylococcus aureus; assay: Ratio of MIC for antibacterial activity against Staphylococcus aureus in presence of MHB medium to MIC for antibacterial activity against Staphylococcus aureus CAMHB medium; assay type: functional
[24] = Toxicity in ICR mouse excisional wound model infected with Staphylococcus aureus Newman ATCC 25904 assessed as survival at 20 mg/kg administered topically for 7 days; assay type: organism-based; details: in vivo, topical_or_ocular, 168 h, route top, time 7 day
[25] = system: Staphylococcus aureus; assay: Antibacterial activity against methicillin-susceptible Staphylococcus aureus ATCC 29213 assessed as reduction in microbial growth incubated for 24 hrs by broth microdilution method; assay type: functional
[26] = system: Enterococcus faecium; assay: Potency index, ratio of daptomycin MIC to test compound MIC for antibacterial activity against Enterococcus faecium EFM 20-1; assay type: functional
[27] = system: Staphylococcus aureus; assay: Antibacterial activity against Staphylococcus aureus assessed as reduction in bacterial growth incubated for 16 to 24 hrs in presence of CAMHB medium by serial dilution method; assay type: functional; details: time 16-24 hrs
[28] = system: Staphylococcus aureus; assay: Antimicrobial activity in Staphylococcus aureus Newman ATCC 25904 infected in ICR mouse excisional wound model assessed as decrease in bacterial growth at 20 mg/kg administered topically and measured after 24 hrs relative to control; assay type: functional; parameters: scale not given: the % may be the effect or the level left; details: route top
[29] = system: Erythrocyte; assay: Hemolytic activity in rat RBC at 400 ug/ml incubated for 1 hr; assay type: toxicity, cell-based; details: dose 400 µg/ml
[30] = system: Staphylococcus aureus; assay: Antibacterial activity against Staphylococcus aureus assessed as reduction in bacterial growth incubated for 16 to 24 hrs by serial dilution method; assay type: functional; details: time 16-24 hrs
[31] = system: Staphylococcus aureus; assay: Antibacterial activity against vancomycin-intermediate resistant Staphylococcus aureus Mu 50 assessed as reduction in microbial growth incubated for 24 hrs by broth microdilution method; assay type: functional
[32] = system: Staphylococcus aureus; assay: Antibacterial activity against methicillin-resistant Staphylococcus aureus clinical isolate 20-1 assessed as reduction in microbial growth incubated for 24 hrs by broth microdilution method; assay type: functional
[33] = system: Staphylococcus aureus; assay: Antibacterial activity against methicillin-resistant Staphylococcus aureus clinical isolate 20-3 infected in iv dosed Kunming mouse model assessed as increase in survival measured after 14 days; assay type: functional; details: Clinical isolate 20-3, 336 h, time 14 day
[34] = system: Staphylococcus aureus; assay: Induction of drug resistance against Staphylococcus aureus Newman ATCC 25904 assessed as fold increase in MIC after 15 days by broth microdilution method; assay type: functional; details: time 15.0 day
[35] = system: Staphylococcus aureus; assay: Potency index, ratio of daptomycin MIC to test compound MIC for antibacterial activity against methicillin-susceptible Staphylococcus aureus clinical isolate 20-1; assay type: functional
[36] = Solubility of compound in saline at >10 mg/ml at room temperature; assay type: physicochemical; details: buffer
[37] = system: Staphylococcus aureus; assay: Induction of membrane disruption in Staphylococcus aureus at 4 to 16 ug/ml incubated for 4 hrs by propidium iodide staining based flow cytometric analysis; assay type: functional, organism-based; details: dose 4-16 µg/ml
[38] = system: Staphylococcus aureus; assay: Antibacterial activity against methicillin-resistant Staphylococcus aureus clinical isolate 20-2 assessed as reduction in microbial growth incubated for 24 hrs by broth microdilution method; assay type: functional
[39] = Toxicity in ICR mouse excisional wound model infected with Staphylococcus aureus Newman ATCC 25904 assessed as change in weight at 20 mg/kg administered topically for 7 days; assay type: organism-based; details: in vivo, topical_or_ocular, 168 h, route top, time 7 day
[40] = system: Enterococcus faecium; assay: Antibacterial activity against glycopeptide-resistant Enterococcus faecium Efm-HS-0649 assessed as reduction in microbial growth incubated for 24 hrs by broth microdilution method; assay type: functional
[41] = system: Staphylococcus aureus; assay: Potency index, ratio of daptomycin MIC to test compound MIC for antibacterial activity against methicillin-susceptible Staphylococcus aureus ATCC 29213; assay type: functional

Compound: CCCCCCCCCC(=O)N[C@@H](Cc1c[nH]c2ccccc12)C(=O)N[C@H](CC(N)=O)C(=O)N[C@@H](CC(=O)O)C(=O)N[C@@H]1C(=O)NCC(=O)N[C@@H](CCCN)C(=O)N[C@@H](CC(=O)O)C(=O)N[C@H](C)C(=O)N[C@@H](CC(=O)O)C(=O)NCC(=O)N[C@H](CO)C(=O)N[C@@H]([C@H](C)CC(=O)O)C(=O)N[C@@H](CC(=O)c2ccccc2NCCCCCC)C(=O)O[C@@H]1C
- Ratio [1]: 512
- Ratio [2]: >=4
- Vd [3]: 0.2 L/kg
- Activity [4]: ~ 100%
- half-life [5]: 19 days
- MIC [6]: 0.5 mg/L
- MIC [7]: 4 mg/L
- MIC [8]: 0.125 mg/L
- MIC [9]: 1 mg/L
- MIC [10]: 0.5 mg/L
- MIC [11]: ≤ 0.008 mg/L
- solubility [12]: Soluble
- Ratio [13]: 4
- MIC [14]: 0.5 mg/L
- Ratio [15]: >=4
- MIC [16]: 256 mg/L
- MIC [17]: 2 mg/L
- survival at 10 mg/kg [18]: 25%
- survival at 10 mg/kg [19]: 37.5%
- MIC [20]: 0.5 mg/L
- MIC [21]: 0.015 mg/L
- Ratio [22]: 4
- Ratio [23]: 8
- Activity [24]: Non-Toxic
- MIC [25]: ≤ 0.008 mg/L
- Ratio [26]: >=4
- MIC [27]: 0.5 mg/L
- Activity [28]: 100%
- Activity [29]: Non-Toxic
- MIC [30]: 0.5 mg/L (≈ 0.293 µM)
- MIC [31]: 2 mg/L
- MIC [32]: ≤ 0.008 mg/L
- ED50 [33]: 0.29 mg/kg
- fold change (FC) [34]: 4
- Ratio [35]: >=4
- solubility [36]: Soluble
- Activity [37]: Active
- MIC [38]: 0.03 mg/L
- Activity [39]: Non-Toxic
- MIC [40]: 0.25 mg/L
- Ratio [41]: >=4
